# “Also recorded” adds a separate entry of the source.
# What was measured:
# [1] = Cell viability assay (MTT); format: cell-based, murine; settings: mouse, B16F10 cells
# Method: B16F10 cells were seeded into 96-well plates at the density of 5 × 10^4 cells/mL, and incubated at 37°C for 24 h. Then, the cells were treated with different concentrations of test samples for 48 h. After incubation, 20 μL MTT (5 mg/mL) was added to each well, and incubated for another 4 h at 37°C. The reaction was stopped by adding 150 μL DMSO per well. The optical density at 490 nm was measured using a microplate reader. Cell viability was calculated as the percentage of viable cells relative to the control group.
# B16F10 cells = assay: Measurement of melanin content in B16F10 cells; format: cell-based, murine; settings: 48 h; for increase of intracellular melanin content: vs untreated cells
# Method: Measurement of melanin content was carried out according to a previously described method with a slight modification ([Karunarathne et al., 2019]). B16F10 cells were cultured in 6-well plates at the density of 2 × 10^5 cells/mL overnight before being treated with different concentrations of test samples for 48 h. After the treatments, the medium was discarded and the cells were washed twice with PBS and were collected, then 200 μL of RIPA lysis buffer was added to each well, and left standing in an ice bath for 40 min. The lysates were then clarified by centrifugation for 20 min at 4°C, 12,000 r/min. The protein content in the supernatants was measured using the Pierce BCA protein assay kit. Then the harvested cell pellets were photographed and dissolved in 100 μL of 1 M NaOH (containing 10% DMSO) at 100°C for 1 h. Melanin content was determined by measuring absorption at 405 nm. For the accurate calculation of melanin content, absorbance values were normalized to total protein absorbance values.
# [2] = biological target: T1, Intracellular tyrosinase in B16F10 cells (Mus musculus, UniProt P11344); assay: Measurement of tyrosinase activity in B16F10 cells (L-DOPA oxidation); format: cell-based, murine; settings: 48 h
# T1 construct: endogenous in cells; host or cells: B16F10 murine melanoma cells
# T1 sequence (P11344 19-533): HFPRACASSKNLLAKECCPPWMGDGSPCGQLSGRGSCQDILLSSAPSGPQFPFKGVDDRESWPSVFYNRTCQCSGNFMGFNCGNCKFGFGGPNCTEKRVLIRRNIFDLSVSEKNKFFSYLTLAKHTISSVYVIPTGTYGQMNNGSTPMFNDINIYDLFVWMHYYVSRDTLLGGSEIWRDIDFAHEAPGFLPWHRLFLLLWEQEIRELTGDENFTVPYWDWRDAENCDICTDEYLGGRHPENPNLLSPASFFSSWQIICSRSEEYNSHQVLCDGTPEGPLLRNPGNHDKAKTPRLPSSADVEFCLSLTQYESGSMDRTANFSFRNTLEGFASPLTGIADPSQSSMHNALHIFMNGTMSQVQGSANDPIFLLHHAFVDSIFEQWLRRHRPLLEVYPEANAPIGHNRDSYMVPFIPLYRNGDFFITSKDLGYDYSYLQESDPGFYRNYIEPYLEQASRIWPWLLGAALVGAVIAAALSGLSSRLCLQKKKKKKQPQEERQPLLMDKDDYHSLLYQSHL
# Method: Intracellular tyrosinase activity was determined by measuring the rate of oxidation of L-DOPA to dopachrome according to a previously described method with a slight modification ([Maack and Pegard, 2016]). The tyrosinase inhibitor glabridin ([Zhang et al., 2023]) and tyrosinase activator 8-MOP ([Yin et al., 2018]) were both utilized as controls to ensure the accuracy of tyrosinase activity assay in living cells. B16F10 cells were cultured in 24-well plates at the density of 5 × 10^4 cells/mL overnight and then treated with different concentrations of test samples for 48 h. After treatments, cells were washed twice with PBS, lysed with PBS containing 1% Triton X-100, and frozen at −80°C for 1 h. The lysates were then clarified by centrifugation for 20 min at 4°C, 12,000 r/min. The protein content in the supernatants was measured using the Pierce BCA protein assay kit. After protein quantification and the adjustment of the protein concentrations, 100 μL of each lysate was mixed with 100 μL of 4 mM L-DOPA in a 96-well plate, and then incubated at 37°C for 1 h, the optical density at 475 nm was measured using a microplate reader. Tyrosinase activity was expressed as a percentage of the control. All experiments were carried out at least three times.
# TRP-1 = assay: Western blotting of TRP-1 in B16F10 cells; format: cell-based, murine; settings: 48 h
# Method: (§1) Equal amounts of proteins from the preceding step were loaded and separated by using the 10% SDS-PAGE gels before being electro-transferred onto polyvinylidene fluoride membranes. The membrane was then blocked with 5% skim milk in TBST (Tris-buffered saline containing 0.1% Tween 20) at room temperature for 2 h. The blots were incubated overnight with primary antibodies against TYR, TRP-1, MITF, DCT, and β-actin at 4°C. After washing thrice with TBST (5 min), the membrane was incubated with the secondary antibody for 1 h at room temperature. The protein bands were detected using the ECL detection kit and imaged using a chemiluminescence gel imaging system, and the band intensities were analyzed by the Image J software.
# MITF = assay: Western blotting of MITF in B16F10 cells; format: cell-based, murine; settings: 48 h
# Method: as §1
# zebrafish larvae [3] = assay: Melanogenesis in zebrafish larvae pretreated with PTU; format: in vivo; settings: 48 h, PTU 200 μM pretreatment
# Method: (§2) To assess the effects of these compounds on melanogenesis in vivo, the total melanin content of whole zebrafish extracts was measured according to a previously described method with minor modification ([Karunarathne et al., 2019]; [Ding et al., 2021]). Briefly, zebrafish larvae of 24 h post-fertilized (hpf) were seeded in 24-well plates with ten embryos per well, each group was set up with four replicates and pretreated with 200 μM PTU for 24 h. Then, the culture medium was replaced with different concentrations of test samples and treated for another 48 h. 8-MOP (50 μM) was used as a positive control, blank controls were not treated and were cultured normally. In addition, to further verify the whitening effect of the compounds, ten zebrafish larvae (24 hpf) per well were seeded in a 24-well plate and cultured for another 24 h using fresh culture media, and each group was set up with four duplicates. Then, the culture medium was replaced with different concentrations of test samples, and the zebrafish larvae were incubated for another 48 h. 8-MOP (50 μM) and arbutin (100 mM) were used as positive controls. Spontaneous melanin content was measured from zebrafish larvae at 96 hpf. The fish embryos were fixed upright with sodium carboxymethylcellulose fixative. Five fish embryos from each experiment were randomly selected for photography under a stereomicroscope. The densitometric analysis was performed using Image J software.
# zebrafish larvae [4] = assay: Zebrafish depigmentation model (without PTU pretreatment); format: in vivo; settings: 48 h, no PTU pretreatment
# Method: as §2
# mushroom tyrosinase = mushroom tyrosinase (Agaricus bisporus, UniProt C7FF04); assay: Tyrosinase inhibition kinetic analysis (Lineweaver-Burk); format: biochemical; settings: Lineweaver-Burk plots, L-tyrosine substrate
# Method: The enzyme reaction kinetics of these compounds were measured by constructing Lineweaver-Burk plots of inverse velocities (1/[V]), contrary to the inverse of substrate concentration (1/[S]) ([Yoshino and Murakami, 2009]; [Butt et al., 2019]). Preincubations and measurement times were performed using the same protocol as described above. The substrate tyrosine concentration was kept between 0.5 and 8 mM in all kinetic studies, test sample concentrations were set as follows: glabridin (0–0.625 µM), KR (0–5 µM), SG (0–10 µM), IAI (0–2 µM). The values of the kinetic constants were calculated using Lineweaver-Burk plot analysis, and the maximum velocity (Vmax) and Michaelis constant (Km) were also calculated by the Lineweaver-Burk plots with the various concentrations of substrate.
# DCT = assay: Western blotting of DCT in B16F10 cells; format: cell-based, murine; settings: 48 h
# Method: as §1
# zebrafish embryos = assay: Determination of the maximum tolerated concentration (MTC) in zebrafish embryos; format: in vivo; settings: 24 h
# Method: Zebrafish embryos that were developing normally at 24 h were chosen at random, five zebrafish embryos per well were seeded in 48 well plates, and each group was set up with three duplicates. The embryo culture medium in the 48-well plate was removed except the blank group, and 1 mL of culture medium containing different concentrations of test samples was added to treatment groups for 24 h. The vehicle control group was added to the embryo culture medium containing 0.1% of DMSO.
# tyrosinase = biological target: tyrosinase; design: method as in Kim et al., 2003; settings: ref Kim et al., 2003; read-out: IC50 (inhibition on tyrosinase activity); cited from earlier work
# mushroom tyrosinase, sequence (C7FF04 1-392): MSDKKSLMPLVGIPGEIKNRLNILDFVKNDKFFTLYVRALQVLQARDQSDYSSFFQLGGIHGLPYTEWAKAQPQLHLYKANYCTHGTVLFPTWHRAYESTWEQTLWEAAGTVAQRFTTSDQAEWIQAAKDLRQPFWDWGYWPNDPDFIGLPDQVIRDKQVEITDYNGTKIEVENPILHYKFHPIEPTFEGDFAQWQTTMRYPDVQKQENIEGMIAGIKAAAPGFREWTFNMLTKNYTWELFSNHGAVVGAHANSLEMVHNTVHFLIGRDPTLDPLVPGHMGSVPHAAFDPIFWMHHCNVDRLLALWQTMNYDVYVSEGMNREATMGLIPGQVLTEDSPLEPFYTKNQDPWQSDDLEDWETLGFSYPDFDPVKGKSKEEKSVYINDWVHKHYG
compound,measurement,setting,value
"COc1c2occc2cc2ccc(=O)oc12 [8-MOP, 8-methoxypsoralen, reference compound]",viability at 48 h,[1]; 0–100 μM,> 80%
same,effect on melanin production in B16F10 cells (in words),B16F10 cells,promoted melanin biosynthesis
same,effect on tyrosinase activity in B16F10 cells (in words),[2],enhance cellular tyrosinase activity
same,expression of TRP-1 (in words),TRP-1; positive control,increased
same,expression of MITF (in words),MITF; positive control,increased
same,increase of melanin production vs model (PTU) group,zebrafish larvae [3]; 50 μM,25.0%
same,effect on melanin production vs control group (in words),zebrafish larvae [4],did not affect melanin production
"CC1(C)C=Cc2c(ccc3c2OC[C@@H](c2ccc(O)cc2O)C3)O1 [Glabridin, glabridin, reference compound]",viability at 48 h,[1]; 0–2 μM,> 80%
same,effect on melanin production in B16F10 cells (in words),B16F10 cells,strong anti-melanogenic effect
same,effect on tyrosinase activity in B16F10 cells (in words),[2],inhibited tyrosinase activity
"COc1cc(O)c2c(=O)c(O)c(-c3ccc(O)cc3)oc2c1CC=C(C)C [IAI, isoanhydroicaritin]",inhibition type on tyrosinase,mushroom tyrosinase,mixed type
same,viability at 48 h,[1]; 0–5 μM,> 80%
same,effect on melanin production in B16F10 cells (in words),B16F10 cells,did not exhibit significant activity; also recorded: did not exert any significant effects
same,increase of tyrosinase activity in B16F10 cells,[2]; 5 μM,25.2%
same,effect on tyrosinase activity in B16F10 cells (in words),[2],did not exhibit significant activity
same,upregulation of relative expression of TRP-1 protein,TRP-1; 5 μM,240.0%
same,upregulation of relative expression of DCT protein,DCT; 5 μM,83.4%
same,toxicity in zebrafish by the MTC assay,"zebrafish embryos; 40, 80, and 160 μM",nontoxic
same,reduction of pigmentation vs control group,zebrafish larvae [4]; 80 μM,33.0%
same,reduction of pigmentation vs control group,zebrafish larvae [4]; 160 μM,34.4%
"C=C(C)[C@H](CC=C(C)C)Cc1c(O)cc(OC)c2c1O[C@H](c1ccc(O)cc1O)CC2=O [KR, kurarinone]",inhibition type on tyrosinase,mushroom tyrosinase,mixed type
same,viability at 48 h,[1]; 0–20 μM,> 80%
same,increase of intracellular melanin content,B16F10 cells; 5 μM,61.6%
same,increase of intracellular melanin content,B16F10 cells; 10 μM,85.5%
same,effect on melanin production in B16F10 cells (in words),B16F10 cells,stimulated melanin production
same,increase of tyrosinase activity in B16F10 cells,[2]; 2.5 μM,25.1%
same,increase of tyrosinase activity in B16F10 cells,[2]; 5 μM,42.1%
same,increase of tyrosinase activity in B16F10 cells,[2]; 10 μM,77.2%
same,effect on tyrosinase activity in B16F10 cells (in words),[2],enhanced intracellular tyrosinase activity
same,upregulation of relative expression of TRP-1 protein,TRP-1; 10 μM,79.2%
same,upregulation of relative expression of DCT protein,DCT; 10 μM,127.8%
same,upregulation of relative expression of MITF protein,MITF; 10 μM,84.0%
same,toxicity in zebrafish by the MTC assay,"zebrafish embryos; 5, 10, and 20 μM",nontoxic
same,increase of melanin production vs model (PTU) group,zebrafish larvae [3]; 20 μM,36.9%
same,effect on melanin production vs control group (in words),zebrafish larvae [4],did not affect melanin production
same,IC50,tyrosinase,6.2 µM
"OC[C@H]1O[C@@H](Oc2ccc(O)cc2)[C@H](O)[C@@H](O)[C@@H]1O [arbutin, reference compound]",reduction of pigmentation vs control group,zebrafish larvae [4]; 100 mM,51.4%
"C=C(C)[C@H](CC=C(C)C)Cc1c(O)cc(OC)c(C(=O)/C=C/c2ccc(O)cc2O)c1O [kuraridin, reference compound]",IC50,tyrosinase,0.6 µM
